From patent US20090176817A1, “Method of Treatment of Diarrhea-Predominant Irritable Bowel Syndrome in a Subject” (priority 2005, published 2009)

Tests used:
[1] = tested on: patients with malignant tumors; test: Study S.241.2.101: cisplatin-induced nausea and vomiting; assay type: in vivo, human; conditions: IV 8 mg TID
Experimental: The effect of cilansetron on nausea and vomiting has been studied in 2 clinical studies in cancer patients. Both studies were randomized, singleblind, positive-controlled, parallel-group, pilot studies in male and female patients with malignant tumors, to investigate the effect of cilansetron on cytostatic-induced nausea and vomiting. In both studies, patients were on their first cycle of chemotherapy and were being treated with cisplatin (275 mg/m2 as a single dose in Study S.24 1.2.10 1 and […] for 5 days in Study K.24 1 S O 17). Patients in Study S.24 1.2.10 1 were aged 40-74 years (ITT population=16) and patients in Study K.24 1 S O 17 were aged 39-74 years (ITT population=19). In both studies, patients were randomized to receive either […] or IV ondansetron 8 mg TID for 1 day (Study S.241.2.101) or 5 days (Study K.2415017), corresponding to the day(s) of their cisplatin administration. If nausea and vomiting were completely controlled on a treatment day, the second and/or third doses of cilansetron or ondansetron could be omitted on that day. The primary efficacy parameter in both studies was the combination of the occurrence of vomiting and the severity of nausea, with a responder being defined as a patient with no vomiting and not more than mild nausea during the treatment day(s). […]

[2] = clinical; conditions: both, human, serum, Fraction Unbound in Serum
Experimental: The ex vivo protein binding of cilansetron and its 4-hydroxy metabolites has been measured in serum samples collected in a multiple-dose study in healthy and renally impaired male and female subjects, aged 33-74 years. […] Healthy subjects were matched to renally-impaired subjects with respect to age, weight, gender, and smoking status. All subjects received oral cilansetron 2 mg TID on Days 1 to 5, and a single dose on the morning of Day 6.

[3] = tested on: non-constipated IBS subjects; test: Study S241.2.113: Phase II dose-ranging efficacy; assay type: in vivo, human
Experimental: Study S241.2.113 was a Phase II, double-blind, placebo-controlled, randomized, multi-center, parallel-group, dose-ranging study to investigate the efficacy and safety of cilansetron in nonconstipated subjects with irritable bowel syndrome. The study was conducted in 55 study centers in Canada, France, Austria, Germany, United Kingdom, Italy, Belgium, and The Netherlands. A total of at least 88 subjects per treatment group evaluable for efficacy were planned, in total 440 to complete the study; 776 subjects were screened; 485 subjects were randomized (479 in the safety sample). Diagnosis and main criteria for inclusion were IBS subjects satisfying the Rome criteria (1992) and minimum abdominal pain/discomfort, stool frequency and consistency determined during the run-in period.
Subjects were treated with cilansetron 1 mg, 2 mg, 4 mg and 16 mg tablets given orally TID or matching placebo tablets given orally TID for 12 weeks.
The primary efficacy parameter was the weekly global question concerning adequate relief of IBS symptoms (abdominal pain/discomfort, abnormal bowel habits). A responder is a subject who responded “Yes” at least 50% of the time after randomization, with a minimum treatment duration of four weeks.

[4] = clinical; conditions: both, human, in vivo, 2 mg
[5] = tested on: healthy subjects; test: Study S.241.2.104: gastric visceral perception (barostat); assay type: in vivo, human
Experimental: The effect of cilansetron on gastric perception was evaluated in a randomized, double-blind, placebo-controlled, parallel-group study in 44 male and female healthy subjects (ITT population; 22 subjects received placebo and 22 received 8 mg cilansetron), aged 19-43 years. Subjects received cilansetron 8 mg TID orally for 7 days and gastric distension tests were done at baseline (Day 1, prior to dosing) and poststudy (Day 8). An electronic barostat was used to produce isobarometric distensions (starting from 2 mmHg, progressive distensions in 2 mmHg increments were performed every 2 minutes until gastric pain occurred or an upper limit of 20 rnrnHg was reached) and isovolumetric distensions (starting from an initial volume of 200 mL, progressive distensions in 100 mL increments were performed every 2 minutes until gastric pain occurred or an upper limit of 1100 mL was reached). The primary efficacy parameter was the difference in pain threshold from baseline to poststudy, measured by the amount of distension pressure inducing gastric pain. Secondary parameters were the mean distension pressure/volume inducing the first feelings of gastric sensation and gastric discomfort, and changes in bowel habits over the treatment period. A 2-sample t-test was used to compare baseline-adjusted pain threshold and other secondary efficacy parameters between cilansetron and placebo treatments.

[6] = 8 mg TID oral 7 days, Day 8, arith. mean
[7] = 8 mg TID oral 7 days, arith. mean
[8] = 8 mg TID oral 7 days, baseline-adjusted, 2-sample t-test, significant (p < 0.01)

Q: Which Response rate [1] does the source give for `Cc1nccn1C[C@H]1CCc2c(c3cccc4c3n2CCC4)C1=O` [Cilansetron, (R)-(−)-4,5,6,8,9,10-hexahydro-10-[(2-methyl-1H-imidazol-1-yl)methyl]-11H-pyrido-[3,2,1-jk]-carbazol-11-one] here?
A: 16.7%

Q: What about the fraction unbound [2] of the same molecule?
A: 0.0396

Q: And the fraction unbound at 1 h [2]?
A: 0.0351

Q: And the fraction unbound at […] [2]?
A: 0.034

Q: What about the “Responder rate higher than placebo” value ([3]; 1 mg TID) of the same molecule?
A: 11%

Q: And the “Responder rate better than placebo” value ([3]; 2 mg TID)?
A: 22%

Q: What about the “Responder rate higher than placebo” value ([3]; 4 mg TID) of the same molecule?
A: 8%

Q: And the “Responder rate higher than placebo” value ([3]; 16 mg TID)?
A: 18%

Q: What about the Tmax ([4]; Tmax) of the same molecule?
A: 1 h

Q: What about the half-life ([4]; T½) of the same molecule?
A: 2.85 h

Q: And the “Mean gastric pain threshold raised vs baseline” value ([5]; 8 mg TID 7 days)?
A: 1.9 mmHg

Q: And the “Pressure first producing gastric discomfort, Poststudy” value [5, 6]?
A: 11.9 mmHg

Q: And the “Pressure first producing gastric pain, Poststudy” value [5, 6]?
A: 15.4 mmHg

Q: What about the “Pressure first producing gastric sensation, Poststudy” value [5, 6] of the same molecule?
A: 8.9 mmHg

Q: And the “Volume first producing gastric pain, Poststudy” value [5, 6]?
A: 764 mL

Q: And the “Pressure first producing gastric discomfort, Change from Baseline” value [5, 7]?
A: 0.9 mmHg

Q: And the “Pressure first producing gastric pain, Change from Baseline” value [5, 7]?
A: 1.9 mmHg

Q: What about the “Pressure first producing gastric sensation, Change from Baseline” value [5, 7] of the same molecule?
A: 0.9 mmHg

Q: What about the “Volume first producing gastric pain, Change from Baseline” value [5, 7] of the same molecule?
A: 77 mL

Q: And the “Volume first producing gastric pain, Difference cilansetron versus placebo” value ([5]; 8 mg TID oral 7 days, baseline-adjusted, 2-sample t-test)?
A: -18 mL

Q: What about the “Pressure first producing gastric discomfort, Difference cilansetron versus placebo” value [5, 8] of the same molecule?
A: 2.2 mmHg

Q: What about the “Pressure first producing gastric pain, Difference cilansetron versus placebo” value [5, 8] of the same molecule?
A: 2.8 mmHg

Q: And the “Pressure first producing gastric sensation, Difference cilansetron versus placebo” value [5, 8]?
A: 2.1 mmHg

Q: What about the “Gastric discomfort threshold raised” value ([5]; in vivo) of the same molecule?
A: 0.9 mmHg

Q: What about the “Gastric pain threshold mean increase vs placebo” value ([5]; in vivo) of the same molecule?
A: 2.8 mmHg

Q: What about the “Gastric sensation threshold raised” value ([5]; in vivo) of the same molecule?
A: 0.9 mmHg

Q: What about the “Mean volume to reach gastric pain threshold raised” value ([5]; in vivo) of the same molecule?
A: 77.3 mL

Q: What about the “Gastric discomfort threshold treatment increase” value ([5]; vs placebo) of the same molecule?
A: 2.2 mmHg

Q: What about the “Gastric sensation threshold treatment increase” value ([5]; vs placebo) of the same molecule?
A: 2.1 mmHg

Q: And the “Volume difference between treatments” value ([5]; vs placebo)?
A: -18.0 mL
